Broadly, the EC50 is the concentration at which the effect is half-maximal.

This note sets out measurements from US20260234123A1, “Inhibitors of NLRP3” (Mwyngil Therapeutics, Inc., priority 2023, published 2026).

One test relates to IL1b release THP-1. In words: IL1b release THP-1 (ELISA). The format is cell-based. The conditions noted are these: Homo sapiens, THP-1, read-out: THP 1 IL 1b, EC50, μM. Here is the method:
Example A. Primary Assays Used to Determine IL1b Release THP-1 (ELISA)
• Microbiological safety cabinet, classII (NuAire, USA) • CO2 incubator (VWR Science, USA) • Countess Automated Cell Counter (Invitrogen, USA, cat. number C10227) • Centrifuge CM 6M (Elmi, Latvia) • Serological pipettes 2, 5, 10, 25, 50, 100 ml sterile (Santa Cruz Biotechnology, Inc., USA, sc-200277, sc-200279, sc-200281, sc-200283, Sc-213234, sc-516777) • Single and multichannel pipettes 0.2-10 μL, 50-1200 μL (Eppendorf AG-Hamburg, Germany) • 50 mL PP sterile tubes (Greiner, cat. Number 210261).
• RPMI-1640 (PanEco, C330) • Sodium pyruvate (Paneco, cat. number Φ023) • Non-Essential amino acids 50× (Paneco, Φ116) • Essential amino acids 50× (Paneco, Φ115/50) • FBS (Hyclone Laboratories Inc, USA, SV30160.03) • Antibiotic-antimycotic (Gibco, USA, 15240-062) • 2-mercaptoethanol 1000×55 mM (Gibco, USA, 21985-023) • LPS-EB ultrapure (invivogen, cat. number tlrl-3pelps) • Nigericin (Sigma, cat. number N7143) • ELISA kit, IL-1beta (Cat #A-8766, Interleukin-1 beta-EIA-BEST, Vector Best). LPS Preparation (5 mg/ml): • 1. Add 1 ml of endotoxin-free water according manufacturer's protocol • 2. Vortex until complete solubilization • 3. Aliquote and store at […] for long term storage.
• 1. Add methanol to 10 mg of powder to produce the 10 mM Nigericin solution • 2. Vortex until complete solubilization • 3. Store at 4° C.
THP-1 cells were propagated in RPMI-1640 (10% FBS, Antibiotic-antimycotic 1×, non-Essential amino acids 1×, Essential amino acids 1×, Sodium pyruvate 2×, 2-mercaptoethanol 0.05 mM) at 37° C. and at 5% CO2 in an incubator.
• 1. THP-1 cells were spined at 100 g for 5 min in 50 ml tube. • 2. THP-1 cells were resuspended in warm culture medium (w/o FBS, w/o Antibiotic-antimycotic, non-Essential amino acids 1×, Essential amino acids 1×, Sodium pyruvate 2×) to the concentration 1,3×10^6 cells. • 3. THP-1 cells were primed in tube with 1 μg/ml of LPS for 4 h at 37° C. and at 5% CO2 in an incubator. • 4. THP-1 cells were stimulated with 10 μM of Nigericin (Cat #N7143-10 MG, Sigma Aldrich) for 2 h at 37° C. and at 5% CO2 in an incubator. • 5. After the full activation, the supernatant was collected and the levels of IL-1β were assessed via ELISA according manufacturer instructions (Cat #A-8766, Vector Best).
The average EC50 values are shown in Table A, wherein “A” corresponds to EC50: A≤0.5 μM, “B” corresponds to 0.5 μM<EC50≤1.0 μM, “C” 1.0 μM<EC50≤5.0 μM, “D” corresponds to 5.0 μM<EC50≤30 μM and “E” corresponds to EC50>30 μM.
Background: In an ELISA, binding on a coated surface is turned into a signal by an enzyme label.
On to `CCC(C)N1CCC[C@@H](Nc2cc(C)c(-c3ccc(C(F)(F)F)cc3NS(C)(=O)=O)nn2)C1` (stereo partly drawn) [Compound 35, N-(2-(6-(((3R)-1-(sec-Butyl)piperidin-3-yl)amino)-4-methylpyridazin-3-yl)-5-(trifluoromethyl)phenyl) methanesulfonamide], for which the EC50 is less than 0.5 µM.

On to `Cc1cc(-c2ccc(C(F)(F)F)cc2NS(C)(=O)=O)nnc1N[C@@H]1CCCN(C(C)C)C1` [Compound 25, (R)—N-(2-(6-((1-Isopropylpiperidin-3-yl)amino)-5-methylpyridazin-3-yl)-5-(trifluoromethyl)phenyl) methanesulfonamide], for which the EC50 was less than 0.5 µM.

In the case of `Cc1cc(-c2ccc(C(F)(F)F)cc2NS(C)(=O)=O)nnc1N[C@@H]1CCCN(C2CCC2)C1` [Compound 31, (R)—N-(2-(6-((1-Cyclobutylpiperidin-3-yl)amino)-5-methylpyridazin-3-yl)-5-(trifluoromethyl)phenyl) methanesulfonamide], the EC50 is less than 0.5 µM.

The same test, now with this note: Homo sapiens; average EC50; THP-1 cells primed with 1 μg/ml LPS 4 h, stimulated with 10 μM Nigericin 2 h; IL-1β in supernatant by ELISA; read-out: THP 1 IL 1b, EC50.
With `Cc1cc(N[C@@H]2CCCN(C(C)C)C2)nnc1-c1ccc(C(F)(F)F)cc1Nc1ccccc1` [Compound 112, 6-[2-anilino-4-(trifluoromethyl)phenyl]-N-[(3R)-1-isopropyl-3-piperidyl]-5-methyl-pyridazin-3-amine], the EC50 is less than 0.5 µM.

Regarding `Cc1cc(-c2ccc(C(F)(F)F)cc2N)nnc1N[C@@H]1CCCN(C(C)C)C1` [Compound 118, 6-[2-amino-4-(trifluoromethyl)phenyl]-N-[(3R)-1-isopropyl-3-piperidyl]-4-methyl-pyridazin-3-amine], the EC50 is less than 0.5 µM.

In the case of `CCN1CCC[C@@H](Nc2nnc(-c3ccc(C(F)(F)F)c4cn[nH]c34)cc2C)C1` [Compound 18, (R)—N-(1-ethylpiperidin-3-yl)-4-methyl-6-(4-(trifluoromethyl)-1H-indazol-7-yl)pyridazin-3-amine], the EC50 was greater than 30 µM.

Regarding `CCN1CCC[C@@H](Nc2nnc(-c3ccc(C(F)(F)F)cc3N)cc2C)C1` [Compound 131, 6-[2-amino-4-(trifluoromethyl)phenyl]-N-[(3R)-1-ethyl-3-piperidyl]-4-methyl-pyridazin-3-amine], the EC50 is less than 0.5 µM.

With `CN1CCC[C@@H](Nc2nnc(-c3ccc(C(F)(F)F)cc3NS(C)(=O)=O)cc2C(F)(F)F)C1` [Compound 52, N-[2-[6-[[(3R)-1-methyl-3-piperidyl]amino]-5-(trifluoromethyl)pyridazin-3-yl]-5-(trifluoromethyl)phenyl]methanesulfon-amide], the EC50 lay within 1 to 5 µM.

For `CN1CCC[C@@H](Nc2cc(C(F)(F)F)c(-c3ccc(C(F)(F)F)cc3NS(C)(=O)=O)nn2)C1` [Compound 51, N-[2-[6-[[(3R)-1-methyl-3-piperidyl]amino]-4-(trifluoromethyl)pyridazin-3-yl]-5-(trifluoromethyl)phenyl]methanesulfon-amide], the EC50 was in the range of 1 to 5 µM.

For the molecule `Cc1cc(N[C@@H]2CCCN(C3CC3)C2)nnc1-c1ccc(C(F)(F)F)cc1NS(C)(=O)=O` [Compound 36, N-[2-[6-[[(3R)-1-cyclopropyl-3-piperidyl]amino]-4-methyl-pyridazin-3-yl]-5-(trifluoromethyl)phenyl]methanesulfon-amide], the EC50 was less than 0.5 µM.

Turning to `CNc1cc(C(F)(F)F)ccc1-c1nnc(N[C@@H]2CCCN(C(C)C)C2)cc1C` [Compound 108, N-[(3R)-1-isopropyl-3-piperidyl]-5-methyl-6-[2-(methylamino)-4-(trifluoromethyl)phenyl]pyridazin-3-amine], the EC50 is less than 0.5 µM.

In the case of `Cc1cc(-c2ccc(C(F)(F)F)cc2Nc2ccccc2)nnc1N[C@@H]1CCCN(C(C)C)C1` [Compound 121, 6-[2-anilino-4-(trifluoromethyl)phenyl]-N-[(3R)-1-isopropyl-3-piperidyl]-4-methyl-pyridazin-3-amine], the EC50 lay within 0.5 to 1 µM.

`Cc1cc(N[C@@H]2CCCN(C(C)C)C2)nnc1-c1ccc(C(F)(F)F)cc1NC(C)C` [Compound 111, 6-[2-(isopropylamino)-4-(trifluoromethyl)phenyl]-N-[(3R)-1-isopropyl-3-piperidyl]-5-methyl-pyridazin-3-amine]: the EC50 is less than 0.5 µM.

For `Cc1cc(C(F)(F)F)cc(NS(C)(=O)=O)c1-c1ccc(N[C@@H]2CCCN(C)C2)nn1` [Compound 1, (R)—N-(3-methyl-2-(6-((1-methylpiperidin-3-yl)amino)pyridazin-3-yl)-5-(trifluoromethyl)phenyl) methanesulfonamide], the EC50 was in the range of 1 to 5 µM.

For `Cc1cc(-c2ccc(C(F)(F)F)cc2NS(C)(=O)=O)nnc1N[C@@H]1CCCN(CCO)C1` [Compound 9, (R)—N-(2-(6-((1-(2-Hydroxyethyl)piperidin-3-yl)amino)-5-methylpyridazin-3-yl)-5-(trifluoromethyl)phenyl) methanesulfonamide], the EC50 was in the range of 0.5 to 1 µM.

On to `CCNc1cc(C(F)(F)F)ccc1-c1nnc(N[C@@H]2CCCN(C(C)C)C2)cc1C` [Compound 109, 6-[2-(ethylamino)-4-(trifluoromethyl)phenyl]-N-[(3R)-1-isopropyl-3-piperidyl]-5-methyl-pyridazin-3-amine], for which the EC50 is less than 0.5 µM.

Turning to `Cc1cc(N[C@@H]2CCCN(C)C2)nnc1-c1ccc(C(F)(F)F)c2nn[nH]c12` [Compound 20, (R)-5-Methyl-N-(1-methylpiperidin-3-yl)-6-(4-(trifluoromethyl)-1H-benzo[d][1,2,3]triazol-7-yl)pyridazin-3-amine], the EC50 is greater than 30 µM.

In the case of `Cc1c(N[C@@H]2CCCN(C)C2)nnc(-c2ccc(C(F)(F)F)c3nn[nH]c23)c1C` [Compound 22, (R)-4,5-dimethyl-N-(1-methylpiperidin-3-yl)-6-(4-(trifluoromethyl)-1H-benzo[d][1,2,3]triazol-7-yl)pyridazin-3-amine], the EC50 lay in the range of 5 to 30 µM.

For the molecule `CCNc1cc(C(F)(F)F)ccc1-c1cc(C)c(N[C@@H]2CCCN(C(C)C)C2)nn1` [Compound 114, 6-[2-(ethylamino)-4-(trifluoromethyl)phenyl]-N-[(3R)-1-isopropyl-3-piperidyl]-4-methyl-pyridazin-3-amine], the EC50 was less than 0.5 µM.

Consider `CCN1CCC[C@@H](Nc2nnc(-c3ccc(C(F)(F)F)cc3NS(=O)(=O)c3c[nH]cn3)cc2C)C1` [Compound 68, (R)—N-(2-(6-((1-Ethylpiperidin-3-yl)amino)-5-methylpyridazin-3-yl)-5-(trifluoromethyl)phenyl)-1H-imidazole-5-sulfonamide], for which the EC50 was in the range of 5 to 30 µM.

As to `CCN1CCC[C@@H](Nc2nnc(-c3ccc(C(F)(F)F)cc3NS(=O)(=O)C(C)C)cc2C)C1` [Compound 72], the EC50 was in the range of 5 to 30 µM.

Regarding `CCN1CCC[C@@H](Nc2cc(C3CC3)c(-c3ccc(C(F)(F)F)cc3NS(C)(=O)=O)nn2)C1` [Compound 43, (R)—N-(2-(4-Cyclopropyl-6-((1-ethylpiperidin-3-yl)amino)pyridazin-3-yl)-5-(trifluoromethyl)phenyl) methanesulfonamide], the EC50 is less than 0.5 µM.

Consider `CN1CCC[C@@H](Nc2cc(C(F)(F)F)c(-c3ccc(C(F)(F)F)c(N)c3N)nn2)C1` [Compound 101, 3-[6-[[(3R)-1-methyl-3-piperidyl]amino]-4-(trifluoromethyl)pyridazin-3-yl]-6-(trifluoromethyl)benzene-1,2-diamine], for which the EC50 lay in the range of 1 to 5 µM.
